Measured values: patent publication US20220409633A1, “COMPOSITION COMPRISING BUDESONIDE FOR OPHTHALMIC USE” (NTC S.R.L., priority 2019, published 2022)

How the values were obtained:
[1] = Average size distribution of micronized budesonide powder by laser diffractometer; format: physicochemical; conditions: FIG. 5
Excerpt: Preferably, said budesonide has an average size distribution shown in the diagram of FIG. 5, and in tabular form in Table A.1 below (in which the numerical values are expressed in μm).
In Table A.1, the parameters Dx(10), Dx(50) and Dx(90) respectively indicate that 10%, 50% and 90% by weight of the particles analysed have a dimensional distribution below the numerical values (expressed in μm) indicated in such Table.
For example, the average size distribution could be determined by means of a Spraytec laser diffractometer (Malvern Panalytics, UK), preferably using the instrumental operating parameters shown in Table A.2 below, where the parameters not specified in such table were maintained as per default specifications of the laser diffractometer.

[2] = Cumulative distribution Q3% (HELOS Particle Size Analysis) of budesonide powder; format: physicochemical; conditions: FIG. 4
Excerpt: FIGS. 3 and 4 respectively show a diagram of the Cumulative Distribution Q3% (HELOS Particle Size Analysis) with respect to the particle size in μm, and a table corresponding to said diagram of the Cumulative Distribution with standard deviation, according to a possible embodiment of the budesonide that can be used in this invention. […] In this range of there is half the total weight, almost as in the remaining […]; Said budesonide is obtained and supplied by the manufacturer already in this form according to an average size distribution shown in the diagram of FIG. 3, and in tabular form in FIG. 4, which show the cumulative distribution Q3% with respect to the particle size in μm.

[3] = cited from earlier work

## CCCC1O[C@@H]2C[C@H]3[C@@H]4CCC5=CC(=O)C=C[C@]5(C)[C@H]4[C@@H](O)C[C@]3(C)[C@]2(C(=O)CO)O1 (stereo partly drawn) [budesonide]
[1]; 10% by weight of particles below this size
  Dx(10): 1.10 μm
[1]; 50% by weight of particles below this size
  Dx(50): 2.02 μm
[1]; 90% by weight of particles below this size
  Dx(90): 3.68 μm
[2]; x0/μm=2,50
  Cumulative Distribution Q3%: 90,32%
[2]; x0/μm=3.75
  Cumulative Distribution Q3%: 99,01%
[3]
  solubility in water: not water-soluble
